# In article PMC9856672, “SGC-CAMKK2-1: A Chemical Probe for CAMKK2” (Cells, 2023):
# Legend:
# CAMK1B = target: T1, CAMK1B (Homo sapiens, UniProt Q6P2M8); assay: KINOMEscan 1 μM, CAMK1B; assay type: binding; conditions: 1000 nM; Entrez PNCK; read-out: Percent Control
# T1 construct: purchased Eurofins DiscoverX KINOMEscan
# From the text: (§1) Supplement cells-12-00287-s001.zip/File S2. KinomeScan data for the CAMKK2 probe and negative control.xlsx, sheet "SGC-CAMKK2-1" | column: Percent Control
# SGK2 = target: T2, SGK2 (Homo sapiens, UniProt Q9HBY8); assay: KINOMEscan 1 μM, SGK2; assay type: binding; conditions: 1000 nM; Entrez SGK2; read-out: Percent Control
# T2 construct: purchased Eurofins DiscoverX KINOMEscan
# From the text: as §1
# ERBB3 = target: T3, ERBB3 (Homo sapiens, UniProt P21860); assay: KINOMEscan 1 μM, ERBB3; assay type: binding; conditions: 1000 nM; Entrez ERBB3; read-out: Percent Control
# T3 construct: purchased Eurofins DiscoverX KINOMEscan
# From the text: as §1
# LIMK2 = target: T4, LIMK2 (Homo sapiens, UniProt P53671); assay: KINOMEscan 1 μM, LIMK2; assay type: binding; conditions: 1000 nM; Entrez LIMK2; read-out: Percent Control
# T4 construct: purchased Eurofins DiscoverX KINOMEscan
# From the text: as §1
# PRKCE = target: T5, PRKCE (Homo sapiens, UniProt Q02156); assay: KINOMEscan 1 μM, PRKCE; assay type: binding; conditions: 1000 nM; Entrez PRKCE; read-out: Percent Control
# T5 construct: purchased Eurofins DiscoverX KINOMEscan
# From the text: as §1
# MET = target: T6, MET (Homo sapiens, UniProt P08581); assay: KINOMEscan 1 μM, MET; assay type: binding; conditions: 1000 nM; Entrez MET; read-out: Percent Control
# T6 construct: purchased Eurofins DiscoverX KINOMEscan
# From the text: as §1
# GRK7 = target: T7, GRK7 (Homo sapiens, UniProt Q8WTQ7); assay: KINOMEscan 1 μM, GRK7; assay type: binding; conditions: 1000 nM; Entrez GRK7; read-out: Percent Control
# T7 construct: purchased Eurofins DiscoverX KINOMEscan
# From the text: as §1
# PIK3CA(E545K) = target: T8, PIK3CA(E545K) (Homo sapiens, UniProt P42336, E545K); assay: KINOMEscan 1 μM, PIK3CA(E545K); assay type: binding; conditions: 1000 nM; Entrez PIK3CA; read-out: Percent Control
# T8 construct: purchased Eurofins DiscoverX KINOMEscan
# From the text: as §1
# CDKL3 = target: T9, CDKL3 (Homo sapiens, UniProt Q8IVW4); assay: KINOMEscan 1 μM, CDKL3; assay type: binding; conditions: 1000 nM; Entrez CDKL3; read-out: Percent Control
# T9 construct: purchased Eurofins DiscoverX KINOMEscan
# From the text: as §1
# EPHB3 = target: T10, EPHB3 (Homo sapiens, UniProt P54753); assay: KINOMEscan 1 μM, EPHB3; assay type: binding; conditions: 1000 nM; Entrez EPHB3; read-out: Percent Control
# T10 construct: purchased Eurofins DiscoverX KINOMEscan
# From the text: as §1
# FLT4 = target: T11, FLT4 (Homo sapiens, UniProt P35916); assay: KINOMEscan 1 μM, FLT4; assay type: binding; conditions: 1000 nM; Entrez FLT4; read-out: Percent Control
# T11 construct: purchased Eurofins DiscoverX KINOMEscan
# From the text: as §1
# TAOK3 = target: T12, TAOK3 (Homo sapiens, UniProt Q9H2K8); assay: KINOMEscan 1 μM, TAOK3; assay type: binding; conditions: 1000 nM; Entrez TAOK3; read-out: Percent Control
# T12 construct: purchased Eurofins DiscoverX KINOMEscan
# From the text: as §1
# BRK = target: T13, BRK (Homo sapiens, UniProt Q13882); assay: KINOMEscan 1 μM, BRK; assay type: binding; conditions: 1000 nM; Entrez PTK6; read-out: Percent Control
# T13 construct: purchased Eurofins DiscoverX KINOMEscan
# From the text: as §1
# CIT = target: T14, CIT (Homo sapiens, UniProt O14578); assay: KINOMEscan 1 μM, CIT; assay type: binding; conditions: 1000 nM; Entrez CIT; read-out: Percent Control
# T14 construct: purchased Eurofins DiscoverX KINOMEscan
# From the text: as §1
# HIPK2 = target: T15, HIPK2 (Homo sapiens, UniProt Q9H2X6); assay: KINOMEscan 1 μM, HIPK2; assay type: binding; conditions: 1000 nM; Entrez HIPK2; read-out: Percent Control
# T15 construct: purchased Eurofins DiscoverX KINOMEscan
# From the text: as §1
# NEK7 = target: T16, NEK7 (Homo sapiens, UniProt Q8TDX7); assay: KINOMEscan 1 μM, NEK7; assay type: binding; conditions: 1000 nM; Entrez NEK7; read-out: Percent Control
# T16 construct: purchased Eurofins DiscoverX KINOMEscan
# From the text: as §1
# p38-beta = target: T17, p38-beta (Homo sapiens, UniProt Q15759); assay: KINOMEscan 1 μM, p38-beta; assay type: binding; conditions: 1000 nM; Entrez MAPK11; read-out: Percent Control
# T17 construct: purchased Eurofins DiscoverX KINOMEscan
# From the text: as §1
# SRMS = target: T18, SRMS (Homo sapiens, UniProt Q9H3Y6); assay: DiscoverX KINOMEscan binding assay at 1 μM, SRMS; conditions: Compound Concentration 1000 nM, read-out: Percent Control
# T18 construct: purchased Eurofins DiscoverX KINOMEscan
# From the text: as §1
# YANK3 = target: T19, YANK3 (Homo sapiens, UniProt Q86UX6); assay: DiscoverX KINOMEscan binding assay at 1 μM, YANK3; conditions: YANK3 (STK32C); Compound Concentration 1000 nM; read-out: Percent Control
# T19 construct: purchased Eurofins DiscoverX KINOMEscan
# From the text: as §1
# MEK6 = target: T20, MEK6 (Homo sapiens, UniProt P52564); assay: KINOMEscan at 1 μM, MEK6; assay type: binding; conditions: 1000 nM, read-out: Percent Control
# T20 construct: purchased Eurofins DiscoverX KINOMEscan
# From the text: (§2) Supplement cells-12-00287-s001.zip/File S2. KinomeScan data for the CAMKK2 probe and negative control.xlsx, sheet "SGC-CAMKK2-1N" | column: Percent Control
# TTK = target: T21, TTK (Homo sapiens, UniProt P33981); assay: KINOMEscan at 1 μM, TTK; assay type: binding; conditions: 1000 nM, read-out: Percent Control
# T21 construct: purchased Eurofins DiscoverX KINOMEscan
# From the text: as §2
# [1] = target: T22, ABL1(H396P)-nonphosphorylated (Homo sapiens, UniProt P00519, H396P); assay: KINOMEscan at 1 μM, ABL1(H396P)-nonphosphorylated; assay type: binding; conditions: 1000 nM, read-out: Percent Control
# T22 construct: purchased Eurofins DiscoverX KINOMEscan
# From the text: as §2
# MST4 = target: T23, MST4 (Homo sapiens, UniProt Q9P289); assay: KINOMEscan at 1 μM, MST4; assay type: binding; conditions: 1000 nM, read-out: Percent Control
# T23 construct: purchased Eurofins DiscoverX KINOMEscan
# From the text: as §2
# PIK3CB = target: T24, PIK3CB (Homo sapiens, UniProt P42338); assay: KINOMEscan at 1 μM, PIK3CB; assay type: binding; conditions: 1000 nM, read-out: Percent Control
# T24 construct: purchased Eurofins DiscoverX KINOMEscan
# From the text: as §2
# IRAK1 = target: T25, IRAK1 (Homo sapiens, UniProt P51617); assay: KINOMEscan at 1 μM, IRAK1; assay type: binding; conditions: 1000 nM, read-out: Percent Control
# T25 construct: purchased Eurofins DiscoverX KINOMEscan
# From the text: as §2
# ABL1-phosphorylated = target: T26, ABL1-phosphorylated (Homo sapiens, UniProt P00519); assay: KINOMEscan at 1 μM, ABL1-phosphorylated; assay type: binding; conditions: 1000 nM, read-out: Percent Control
# T26 construct: purchased Eurofins DiscoverX KINOMEscan
# From the text: as §2
# PFTAIRE2 = target: T27, PFTAIRE2 (Homo sapiens, UniProt Q96Q40); assay: KINOMEscan at 1 μM, PFTAIRE2; assay type: binding; conditions: 1000 nM, read-out: Percent Control
# T27 construct: purchased Eurofins DiscoverX KINOMEscan
# From the text: as §2
# S6K1 = target: T28, S6K1 (Homo sapiens, UniProt P23443); assay: KINOMEscan at 1 μM, S6K1; assay type: binding; conditions: 1000 nM, read-out: Percent Control
# T28 construct: purchased Eurofins DiscoverX KINOMEscan
# From the text: as §2
# TGFBR1 = target: T29, TGFBR1 (Homo sapiens, UniProt P36897); assay: KINOMEscan at 1 μM, TGFBR1; assay type: binding; conditions: 1000 nM, read-out: Percent Control
# T29 construct: purchased Eurofins DiscoverX KINOMEscan
# From the text: as §2
# CLK3 = target: T30, CLK3 (Homo sapiens, UniProt P49761); assay: KINOMEscan at 1 μM, CLK3; assay type: binding; conditions: 1000 nM, read-out: Percent Control
# T30 construct: purchased Eurofins DiscoverX KINOMEscan
# From the text: as §2
# MAP4K5 = target: T31, MAP4K5 (Homo sapiens, UniProt Q9Y4K4); assay: KINOMEscan at 1 μM, MAP4K5; assay type: binding; conditions: 1000 nM, read-out: Percent Control
# T31 construct: purchased Eurofins DiscoverX KINOMEscan
# From the text: as §2
# TNNI3K = target: T32, TNNI3K (Homo sapiens, UniProt Q59H18); assay: KINOMEscan at 1 μM, TNNI3K; assay type: binding; conditions: 1000 nM, read-out: Percent Control
# T32 construct: purchased Eurofins DiscoverX KINOMEscan
# From the text: as §2
# PKAC-alpha = target: T33, PKAC-alpha (Homo sapiens, UniProt P17612); assay: KINOMEscan binding assay at 1 μM, PKAC-alpha; conditions: Compound Concentration 1000 nM; read-out: Percent Control
# T33 construct: purchased Eurofins DiscoverX KINOMEscan
# From the text: as §2
# T19 sequence (Q86UX6 whole entry): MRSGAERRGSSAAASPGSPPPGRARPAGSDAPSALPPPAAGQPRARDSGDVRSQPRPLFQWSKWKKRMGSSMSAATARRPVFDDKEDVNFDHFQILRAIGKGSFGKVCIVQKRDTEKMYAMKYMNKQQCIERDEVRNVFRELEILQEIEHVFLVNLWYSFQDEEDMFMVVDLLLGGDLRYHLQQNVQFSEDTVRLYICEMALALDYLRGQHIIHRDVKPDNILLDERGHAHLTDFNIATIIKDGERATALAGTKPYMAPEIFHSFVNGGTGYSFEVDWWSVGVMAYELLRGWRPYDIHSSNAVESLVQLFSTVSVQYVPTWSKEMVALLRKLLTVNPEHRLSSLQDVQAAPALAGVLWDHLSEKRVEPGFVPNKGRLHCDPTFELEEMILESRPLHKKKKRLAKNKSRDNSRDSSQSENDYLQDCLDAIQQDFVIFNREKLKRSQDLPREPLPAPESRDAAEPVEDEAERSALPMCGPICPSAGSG
# T6 sequence (P08581 25-1390): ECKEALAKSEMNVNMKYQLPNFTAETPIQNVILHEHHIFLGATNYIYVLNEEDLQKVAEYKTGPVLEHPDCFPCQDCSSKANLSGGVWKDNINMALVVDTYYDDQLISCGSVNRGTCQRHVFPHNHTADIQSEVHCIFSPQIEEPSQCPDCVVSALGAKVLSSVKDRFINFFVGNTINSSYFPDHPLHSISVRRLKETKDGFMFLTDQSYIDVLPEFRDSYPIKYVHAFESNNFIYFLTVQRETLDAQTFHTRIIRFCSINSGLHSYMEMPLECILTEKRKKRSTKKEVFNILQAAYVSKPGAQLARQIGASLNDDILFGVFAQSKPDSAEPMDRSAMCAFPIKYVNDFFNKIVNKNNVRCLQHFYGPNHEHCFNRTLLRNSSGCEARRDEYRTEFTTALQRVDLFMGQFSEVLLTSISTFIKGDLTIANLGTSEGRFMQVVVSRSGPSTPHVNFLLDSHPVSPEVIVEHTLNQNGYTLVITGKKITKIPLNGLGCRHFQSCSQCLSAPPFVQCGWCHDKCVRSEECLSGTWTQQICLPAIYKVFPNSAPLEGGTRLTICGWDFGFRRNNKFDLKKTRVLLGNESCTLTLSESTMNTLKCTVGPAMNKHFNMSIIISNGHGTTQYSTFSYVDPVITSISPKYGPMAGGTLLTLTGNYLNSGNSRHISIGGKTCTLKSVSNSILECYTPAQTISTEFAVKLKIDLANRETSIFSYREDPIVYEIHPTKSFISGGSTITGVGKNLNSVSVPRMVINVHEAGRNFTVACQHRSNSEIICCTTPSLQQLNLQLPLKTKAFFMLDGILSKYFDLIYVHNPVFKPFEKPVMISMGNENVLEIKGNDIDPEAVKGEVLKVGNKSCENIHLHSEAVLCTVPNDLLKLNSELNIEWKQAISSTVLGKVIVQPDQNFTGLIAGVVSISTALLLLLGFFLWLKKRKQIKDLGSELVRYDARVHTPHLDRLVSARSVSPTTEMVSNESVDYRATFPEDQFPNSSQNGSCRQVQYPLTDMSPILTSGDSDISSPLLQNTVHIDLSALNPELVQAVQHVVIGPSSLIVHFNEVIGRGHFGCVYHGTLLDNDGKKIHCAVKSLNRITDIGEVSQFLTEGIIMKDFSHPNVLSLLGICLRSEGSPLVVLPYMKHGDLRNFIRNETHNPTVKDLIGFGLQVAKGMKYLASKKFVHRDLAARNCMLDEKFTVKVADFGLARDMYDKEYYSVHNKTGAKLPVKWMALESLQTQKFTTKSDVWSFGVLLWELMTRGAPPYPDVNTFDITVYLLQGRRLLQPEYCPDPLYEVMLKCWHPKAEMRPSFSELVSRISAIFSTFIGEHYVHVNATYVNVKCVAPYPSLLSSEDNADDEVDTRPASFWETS
# T4 sequence (P53671 whole entry): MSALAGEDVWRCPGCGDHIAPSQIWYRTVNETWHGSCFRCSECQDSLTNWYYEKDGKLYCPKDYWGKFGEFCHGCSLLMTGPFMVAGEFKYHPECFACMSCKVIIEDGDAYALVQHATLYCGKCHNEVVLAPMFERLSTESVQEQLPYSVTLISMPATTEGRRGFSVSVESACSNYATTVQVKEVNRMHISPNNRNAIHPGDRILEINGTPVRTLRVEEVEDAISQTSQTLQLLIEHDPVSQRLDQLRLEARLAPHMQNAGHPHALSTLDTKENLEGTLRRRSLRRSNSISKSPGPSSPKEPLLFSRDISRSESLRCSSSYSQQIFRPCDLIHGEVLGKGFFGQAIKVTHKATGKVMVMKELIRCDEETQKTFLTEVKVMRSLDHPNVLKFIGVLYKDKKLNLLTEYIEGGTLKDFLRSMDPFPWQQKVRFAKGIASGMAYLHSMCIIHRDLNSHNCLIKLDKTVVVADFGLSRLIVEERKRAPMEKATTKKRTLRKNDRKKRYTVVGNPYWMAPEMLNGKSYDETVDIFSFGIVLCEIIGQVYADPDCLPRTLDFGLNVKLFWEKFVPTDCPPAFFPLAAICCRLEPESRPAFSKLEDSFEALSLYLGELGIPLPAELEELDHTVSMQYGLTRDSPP
# T13 sequence (Q13882 whole entry): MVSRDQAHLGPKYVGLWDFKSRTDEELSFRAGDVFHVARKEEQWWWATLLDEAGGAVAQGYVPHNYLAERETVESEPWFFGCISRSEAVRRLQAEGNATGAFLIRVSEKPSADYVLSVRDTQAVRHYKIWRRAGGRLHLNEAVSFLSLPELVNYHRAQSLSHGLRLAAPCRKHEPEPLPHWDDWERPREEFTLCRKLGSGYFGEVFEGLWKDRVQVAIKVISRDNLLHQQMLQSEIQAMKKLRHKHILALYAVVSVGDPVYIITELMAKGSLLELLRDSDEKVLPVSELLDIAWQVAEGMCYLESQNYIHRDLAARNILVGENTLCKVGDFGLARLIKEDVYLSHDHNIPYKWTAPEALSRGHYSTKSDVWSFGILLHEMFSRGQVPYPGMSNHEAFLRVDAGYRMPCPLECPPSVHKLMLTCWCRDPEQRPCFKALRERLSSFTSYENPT
# T18 sequence (Q9H3Y6 whole entry): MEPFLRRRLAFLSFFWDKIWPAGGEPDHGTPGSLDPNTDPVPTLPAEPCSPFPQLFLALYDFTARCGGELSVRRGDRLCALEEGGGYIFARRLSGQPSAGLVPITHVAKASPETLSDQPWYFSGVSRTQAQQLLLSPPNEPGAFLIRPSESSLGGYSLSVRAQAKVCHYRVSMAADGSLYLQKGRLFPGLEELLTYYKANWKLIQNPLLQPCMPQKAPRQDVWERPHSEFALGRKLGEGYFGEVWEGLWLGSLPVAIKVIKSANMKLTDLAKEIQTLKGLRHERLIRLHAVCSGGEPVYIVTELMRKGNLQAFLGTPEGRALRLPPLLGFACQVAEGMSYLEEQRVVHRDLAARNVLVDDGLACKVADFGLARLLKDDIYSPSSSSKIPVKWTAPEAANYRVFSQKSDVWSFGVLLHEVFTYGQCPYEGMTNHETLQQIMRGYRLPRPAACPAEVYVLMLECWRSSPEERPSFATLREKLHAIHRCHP
# T15 sequence (Q9H2X6 whole entry): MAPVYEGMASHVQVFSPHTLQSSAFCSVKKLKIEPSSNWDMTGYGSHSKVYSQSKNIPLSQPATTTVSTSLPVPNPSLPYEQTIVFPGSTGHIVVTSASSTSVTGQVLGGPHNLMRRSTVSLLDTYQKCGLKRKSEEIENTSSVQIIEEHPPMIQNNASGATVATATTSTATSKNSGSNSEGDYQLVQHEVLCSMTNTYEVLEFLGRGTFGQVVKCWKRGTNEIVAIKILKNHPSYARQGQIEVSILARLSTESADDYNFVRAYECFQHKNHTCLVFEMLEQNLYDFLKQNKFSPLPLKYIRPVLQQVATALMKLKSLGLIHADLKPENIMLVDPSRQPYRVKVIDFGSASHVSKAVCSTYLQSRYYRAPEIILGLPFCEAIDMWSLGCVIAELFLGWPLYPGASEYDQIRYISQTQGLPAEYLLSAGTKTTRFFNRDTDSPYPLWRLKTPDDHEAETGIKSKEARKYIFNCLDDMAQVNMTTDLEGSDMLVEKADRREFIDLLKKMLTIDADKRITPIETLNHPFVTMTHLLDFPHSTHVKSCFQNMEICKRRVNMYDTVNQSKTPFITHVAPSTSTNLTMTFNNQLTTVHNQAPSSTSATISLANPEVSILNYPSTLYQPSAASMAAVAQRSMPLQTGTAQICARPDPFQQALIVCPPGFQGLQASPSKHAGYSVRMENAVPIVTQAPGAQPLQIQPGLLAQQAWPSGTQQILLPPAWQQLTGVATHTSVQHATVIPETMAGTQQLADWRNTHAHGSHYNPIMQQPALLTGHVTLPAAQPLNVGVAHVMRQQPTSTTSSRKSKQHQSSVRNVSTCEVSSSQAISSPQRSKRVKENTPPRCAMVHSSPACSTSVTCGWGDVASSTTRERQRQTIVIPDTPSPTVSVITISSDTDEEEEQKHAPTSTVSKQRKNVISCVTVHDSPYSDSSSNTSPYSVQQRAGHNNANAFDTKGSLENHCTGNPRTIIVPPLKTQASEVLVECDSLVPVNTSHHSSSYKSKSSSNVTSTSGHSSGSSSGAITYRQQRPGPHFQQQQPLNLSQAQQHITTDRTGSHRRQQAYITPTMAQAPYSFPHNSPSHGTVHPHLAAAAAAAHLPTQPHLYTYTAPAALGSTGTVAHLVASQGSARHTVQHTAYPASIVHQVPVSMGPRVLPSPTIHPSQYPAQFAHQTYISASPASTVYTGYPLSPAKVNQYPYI
# T16 sequence (Q8TDX7 whole entry): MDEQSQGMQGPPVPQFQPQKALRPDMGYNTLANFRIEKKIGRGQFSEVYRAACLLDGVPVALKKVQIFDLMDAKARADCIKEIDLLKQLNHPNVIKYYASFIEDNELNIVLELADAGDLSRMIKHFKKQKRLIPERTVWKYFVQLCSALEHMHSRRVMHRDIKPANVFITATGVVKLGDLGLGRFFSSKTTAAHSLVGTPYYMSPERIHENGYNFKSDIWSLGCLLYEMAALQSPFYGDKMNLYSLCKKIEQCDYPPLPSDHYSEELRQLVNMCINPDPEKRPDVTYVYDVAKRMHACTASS
smiles,measurement,setting,value
Cc1cccc(-c2cnc3occ(-c4ccc(C(=O)O)c(C5CCCC5)c4)c3c2)c1 [SGC-CAMKK2-1 (YL-36)],remaining binding at 1 µM,CAMK1B,64%
same,remaining binding at 1 µM,SGK2,78%
same,remaining binding at 1 µM,ERBB3,86%
same,remaining binding at 1 µM,LIMK2,86%
same,remaining binding at 1 µM,PRKCE,90%
same,remaining binding at 1 µM,MET,92%
same,remaining binding at 1 µM,GRK7,94%
same,remaining binding at 1 µM,PIK3CA(E545K),94%
same,remaining binding at 1 µM,CDKL3,96%
same,remaining binding at 1 µM,EPHB3,96%
same,remaining binding at 1 µM,FLT4,96%
same,remaining binding at 1 µM,TAOK3,97%
same,remaining binding at 1 µM,BRK,100%
same,remaining binding at 1 µM,CIT,100%
same,remaining binding at 1 µM,HIPK2,100%
same,remaining binding at 1 µM,NEK7,100%
same,remaining binding at 1 µM,p38-beta,100%
same,remaining binding at 1 µM,SRMS,100%
same,remaining binding at 1 µM,YANK3,100%
O=C(O)c1ccc(-c2coc3ncc(-c4ccccc4)cc23)cc1Cl [SGC-CAMKK2-1N (UNC-YL-83)],remaining binding at 1 µM,MEK6,46%
same,remaining binding at 1 µM,TTK,54%
same,remaining binding at 1 µM,[1],64%
same,remaining binding at 1 µM,MST4,64%
same,remaining binding at 1 µM,PIK3CB,67%
same,remaining binding at 1 µM,IRAK1,68%
same,remaining binding at 1 µM,ABL1-phosphorylated,69%
same,remaining binding at 1 µM,PFTAIRE2,76%
same,remaining binding at 1 µM,S6K1,76%
same,remaining binding at 1 µM,TGFBR1,80%
same,remaining binding at 1 µM,CLK3,85%
same,remaining binding at 1 µM,MAP4K5,89%
same,remaining binding at 1 µM,TNNI3K,95%
same,remaining binding at 1 µM,PKAC-alpha,100%
